Data taken from patent US20130065964A1, “PERITONEAL DIALYSIS SOLUTION” (UNIVERSIDAD DE CASTILLA LA MANCHA, priority 2010, published 2013).

Key:
[1] = tested on: caspase-3; assay: Caspase-3 activity (Z-DEVD-AFC fluorescence); type: cell-based; conditions: rat PMCs, D-glucose 50 mM, 24 hours, aliskiren 10-100 μM, FIG. 7
Procedure: (§1) The cells were incubated in D-glucose at 50 mM for 24 hours in the presence or absence of aliskiren (10-100 μM), and caspase-3 activity was measured as described in Material and Methods. The data is expressed as mean±SEM, n=3. * p<0.05 compared to the control (C). # p<0.05 compared to untreated cells (control). # p<0.05, compared to cells treated with D-glucose in the presence of carrier (0).
(§2) Rat peritoneal mesothelial cells were isolated by enzymatic digestion in accordance with protocols described in Hjelle J T, Golinska B T, Waters D C, et al. Perit Dial Int 1989; 9: 341-7. Briefly, female rats weighing 200-400 g of the Spragle-Dawley strain were sacrificed pursuant to Royal Decree 1201/2005, of 10 Oct., on protection of animals used for experimental and other scientific purposes. […]
In order to determine caspase-3 activity (Posadas I, Vellecco V, Santos P, et al. Br J Pharmacol 2007; 150: 577-85), the rat mesothelial cells were seeded on 6-well plates until reaching a confluence of 80%. […] After incubation, the samples were centrifuged at 13,000 rpm for 15 minutes at 4° C. and the protein concentration in the supernatants was determined using the Bradford method, following the standard protocol. […] Fluorescence emission was determined on a spectrofluorimeter (Tecan, Austria) at an excitation wavelength of 400 nm and an emission wavelength of 505 nm.

[2] = tested on: reactive oxygen species (ROS) in rat PMCs; assay: Reactive oxygen species by flow cytometry (DCF); type: cell-based; conditions: D-glucose 50 mM and 83 mM, 8 hours, aliskiren 10-100 μM, FIG. 6
Procedure: as §1, with “mM (A) and 83 mM (B)” for “mM”, “8” for “24”, “μM)” for “μM),”, “dichlorofluorescein (DCF) intensity” for “caspase-3 activity”, “measured using flow cytometry,” for “measured”, “*” for “* p<0.05 compared to the control (C). #”
as §2, with “purposes. The abdominal cavity was quickly opened and the abdominal wall (peritoneum and smooth muscle) extracted under sterile conditions.” for “purposes.”
After washing with PBS, the cells were incubated with 5.6-chloromethyl-2,7-dichlorodihydrofluorescein diacetate (CM-H2DCFDA, Invitrogen) for 15 minutes at 37° C., following the standard protocol (Lee H B, 2004). […] The production of reactive oxygen species was calculated on the basis of evaluation of 10,000 cells per experimental condition.

activation of caspase [1]: prevented
SMILES: COCCCOc1cc(C[C@@H](C[C@H](N)[C@@H](O)C[C@H](C(=O)NCC(C)(C)C(N)=O)C(C)C)C(C)C)ccc1OC [aliskiren]
production of reactive oxygen species [2]: prevented
